The results in this text go back to the kinase profiling compilation of Christmann-Franck et al. (2016).

Molecules are shown by their SMILES.

Common to all, as to experiment: KINOMEscan competition binding
What all share (conditions): compound 10.0 µM

Assay [1] deals with EGFR (human), P00533 [746-750 del].
Assay [2] has as its system KIT (human), P10721 [D816V].
For assay [3], the system named is PIK3CA (human), P42336 [E545A].
The subject of assay [4] is KIT (human), P10721 [V559D].
In assay [5] the test system is EIF2AK4 KD2 (human), Q9P2K8 [S808G].
Assay [6] relates to EGFR (human), P00533 [P753S; 747-752 del].
The subject of assay [7] is ABL1 (human), P00519 [M351T].
In assay [8] the test system is FLT3 (human), P36888 [ITD].
In assay [9] the test system is KIT (human), P10721 [V559D/T670I].
For assay [10], the system named is EGFR (human), P00533 [G719S].
Assay [11] relates to PIK3CA (human), P42336 [H1047Y].
Assay [12] relates to PIK3CA (human), P42336 [C420R].
Assay [13] deals with PIK3CA (human), P42336 [Q546K].
Assay [14] relates to EGFR (human), P00533 [L861Q].
In assay [15] the test system is FLT3 (human), P36888 [N841I].
Assay [16] deals with ABL1 (human), P00519 [E255K].
Assay [17] concerns FLT3 (human), P36888 [K663Q].
For assay [18], the system named is PIK3CA (human), P42336 [I800L].
Assay [19] deals with PIK3CA (human), P42336 [E545K].
Sequence of PIK3CA (human), P42336 [E545K] (P42336 whole entry E545K, looked up): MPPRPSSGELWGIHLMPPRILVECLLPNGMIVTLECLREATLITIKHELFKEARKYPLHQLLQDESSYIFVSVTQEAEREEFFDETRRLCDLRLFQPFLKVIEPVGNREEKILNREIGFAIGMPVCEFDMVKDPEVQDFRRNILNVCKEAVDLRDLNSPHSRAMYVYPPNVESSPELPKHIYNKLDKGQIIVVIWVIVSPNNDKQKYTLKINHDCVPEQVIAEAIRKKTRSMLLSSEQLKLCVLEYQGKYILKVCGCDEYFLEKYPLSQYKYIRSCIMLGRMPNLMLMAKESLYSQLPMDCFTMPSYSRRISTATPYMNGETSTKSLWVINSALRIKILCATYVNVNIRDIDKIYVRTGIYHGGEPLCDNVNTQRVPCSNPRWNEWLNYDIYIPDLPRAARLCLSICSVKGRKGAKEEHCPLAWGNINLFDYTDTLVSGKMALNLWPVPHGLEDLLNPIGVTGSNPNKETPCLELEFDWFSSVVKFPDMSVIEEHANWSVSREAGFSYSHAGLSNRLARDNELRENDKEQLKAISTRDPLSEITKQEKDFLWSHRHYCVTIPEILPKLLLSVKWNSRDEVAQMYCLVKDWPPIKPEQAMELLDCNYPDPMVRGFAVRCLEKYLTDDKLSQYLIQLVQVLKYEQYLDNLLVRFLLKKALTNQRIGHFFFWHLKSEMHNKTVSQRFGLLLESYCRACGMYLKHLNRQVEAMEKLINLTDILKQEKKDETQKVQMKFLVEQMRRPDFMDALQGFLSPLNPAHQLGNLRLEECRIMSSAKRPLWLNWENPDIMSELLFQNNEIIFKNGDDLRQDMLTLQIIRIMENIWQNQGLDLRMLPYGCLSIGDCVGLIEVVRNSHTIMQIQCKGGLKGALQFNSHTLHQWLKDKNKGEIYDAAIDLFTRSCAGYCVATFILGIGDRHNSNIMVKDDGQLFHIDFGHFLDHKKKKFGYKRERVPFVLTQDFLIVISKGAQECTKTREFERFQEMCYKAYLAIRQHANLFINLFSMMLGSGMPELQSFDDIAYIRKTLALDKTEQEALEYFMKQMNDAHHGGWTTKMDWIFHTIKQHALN

Sequence of PIK3CA (human), P42336 [H1047Y] (P42336 whole entry H1047Y, looked up): as the sequence (P42336 whole entry E545K, looked up) above, with K545E, H1047Y counted along it
Sequence of PIK3CA (human), P42336 [C420R] (P42336 whole entry C420R, looked up): as the sequence (P42336 whole entry E545K, looked up) above, with C420R, K545E counted along it
Sequence of EIF2AK4 KD2 (human), Q9P2K8 [S808G] (Q9P2K8 whole entry S808G, looked up): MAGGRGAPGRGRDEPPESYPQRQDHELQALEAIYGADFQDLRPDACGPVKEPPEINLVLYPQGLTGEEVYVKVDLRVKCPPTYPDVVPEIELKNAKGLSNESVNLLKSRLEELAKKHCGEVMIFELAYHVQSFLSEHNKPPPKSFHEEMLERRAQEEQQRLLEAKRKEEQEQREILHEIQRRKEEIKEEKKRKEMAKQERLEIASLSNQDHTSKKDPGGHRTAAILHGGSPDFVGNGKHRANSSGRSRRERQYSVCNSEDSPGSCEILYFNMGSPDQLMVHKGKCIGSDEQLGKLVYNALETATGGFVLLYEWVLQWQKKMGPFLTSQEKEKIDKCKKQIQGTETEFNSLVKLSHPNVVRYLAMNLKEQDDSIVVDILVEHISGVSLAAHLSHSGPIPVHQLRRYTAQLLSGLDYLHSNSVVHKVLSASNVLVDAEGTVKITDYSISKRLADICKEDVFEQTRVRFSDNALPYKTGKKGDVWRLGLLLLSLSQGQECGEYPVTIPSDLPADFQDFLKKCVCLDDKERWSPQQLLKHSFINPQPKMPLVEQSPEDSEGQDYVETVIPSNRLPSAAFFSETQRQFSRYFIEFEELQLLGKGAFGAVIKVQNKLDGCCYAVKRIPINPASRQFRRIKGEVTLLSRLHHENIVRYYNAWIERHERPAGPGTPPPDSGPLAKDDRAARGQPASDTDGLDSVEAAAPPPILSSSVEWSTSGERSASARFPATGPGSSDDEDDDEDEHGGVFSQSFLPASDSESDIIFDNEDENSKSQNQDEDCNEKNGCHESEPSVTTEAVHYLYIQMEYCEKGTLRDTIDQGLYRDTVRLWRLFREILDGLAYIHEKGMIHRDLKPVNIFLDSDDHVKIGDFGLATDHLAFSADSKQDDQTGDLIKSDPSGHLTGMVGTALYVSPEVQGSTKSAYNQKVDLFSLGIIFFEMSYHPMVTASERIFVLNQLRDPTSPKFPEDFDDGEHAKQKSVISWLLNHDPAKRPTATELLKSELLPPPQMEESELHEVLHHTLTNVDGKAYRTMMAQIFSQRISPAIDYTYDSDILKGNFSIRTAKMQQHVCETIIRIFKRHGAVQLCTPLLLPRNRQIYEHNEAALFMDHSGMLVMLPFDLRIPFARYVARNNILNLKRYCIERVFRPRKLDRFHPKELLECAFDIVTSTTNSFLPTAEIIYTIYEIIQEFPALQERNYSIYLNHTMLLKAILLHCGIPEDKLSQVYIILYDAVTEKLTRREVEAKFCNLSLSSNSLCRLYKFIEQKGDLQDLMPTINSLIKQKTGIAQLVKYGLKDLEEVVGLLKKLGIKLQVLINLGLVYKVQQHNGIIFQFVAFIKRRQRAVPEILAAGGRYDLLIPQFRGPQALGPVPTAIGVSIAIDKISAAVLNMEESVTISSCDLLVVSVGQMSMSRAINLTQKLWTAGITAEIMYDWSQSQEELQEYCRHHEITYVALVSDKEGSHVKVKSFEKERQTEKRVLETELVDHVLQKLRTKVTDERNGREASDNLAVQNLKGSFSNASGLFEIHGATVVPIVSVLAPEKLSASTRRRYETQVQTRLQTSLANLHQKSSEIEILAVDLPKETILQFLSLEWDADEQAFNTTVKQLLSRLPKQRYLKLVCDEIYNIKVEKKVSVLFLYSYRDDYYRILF
Sequence of PIK3CA (human), P42336 [I800L] (P42336 whole entry I800L, looked up): as the sequence (P42336 whole entry E545K, looked up) above, with K545E, I800L counted along it
Sequence of KIT (human), P10721 [V559D] (P10721 whole entry V559D, looked up): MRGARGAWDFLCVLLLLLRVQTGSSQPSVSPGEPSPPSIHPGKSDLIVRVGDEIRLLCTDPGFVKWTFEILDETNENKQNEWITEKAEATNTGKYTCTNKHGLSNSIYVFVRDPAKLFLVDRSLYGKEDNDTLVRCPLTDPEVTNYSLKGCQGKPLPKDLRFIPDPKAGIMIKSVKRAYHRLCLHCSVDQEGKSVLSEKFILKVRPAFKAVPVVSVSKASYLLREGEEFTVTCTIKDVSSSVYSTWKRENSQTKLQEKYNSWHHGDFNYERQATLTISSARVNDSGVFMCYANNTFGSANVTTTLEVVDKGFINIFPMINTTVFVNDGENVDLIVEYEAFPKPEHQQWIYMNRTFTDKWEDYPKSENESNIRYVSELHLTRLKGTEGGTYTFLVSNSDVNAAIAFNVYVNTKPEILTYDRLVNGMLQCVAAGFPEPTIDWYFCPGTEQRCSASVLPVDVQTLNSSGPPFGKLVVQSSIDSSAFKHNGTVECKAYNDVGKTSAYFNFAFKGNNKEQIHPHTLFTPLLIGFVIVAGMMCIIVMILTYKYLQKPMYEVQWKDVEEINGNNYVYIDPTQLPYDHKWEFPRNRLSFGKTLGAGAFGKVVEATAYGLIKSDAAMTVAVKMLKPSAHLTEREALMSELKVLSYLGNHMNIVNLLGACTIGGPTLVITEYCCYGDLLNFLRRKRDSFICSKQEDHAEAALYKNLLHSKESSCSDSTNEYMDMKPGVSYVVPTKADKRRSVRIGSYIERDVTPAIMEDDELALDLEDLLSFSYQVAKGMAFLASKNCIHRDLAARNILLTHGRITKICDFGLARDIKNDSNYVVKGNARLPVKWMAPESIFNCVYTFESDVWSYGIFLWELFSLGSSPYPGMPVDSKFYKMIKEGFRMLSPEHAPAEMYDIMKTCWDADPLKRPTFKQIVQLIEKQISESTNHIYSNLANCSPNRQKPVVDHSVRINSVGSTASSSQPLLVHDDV
Sequence of PIK3CA (human), P42336 [Q546K] (P42336 whole entry Q546K, looked up): as the sequence (P42336 whole entry E545K, looked up) above, with K545E, Q546K counted along it
Sequence of KIT (human), P10721 [V559D/T670I] (P10721 whole entry V559D/T670I, looked up): as the sequence (P10721 whole entry V559D, looked up) above, with T670I counted along it
Sequence of PIK3CA (human), P42336 [E545A] (P42336 whole entry E545A, looked up): as the sequence (P42336 whole entry E545K, looked up) above, with K545A counted along it
Sequence of KIT (human), P10721 [D816V] (P10721 whole entry D816V, looked up): as the sequence (P10721 whole entry V559D, looked up) above, with D559V, D816V counted along it

Take `CNC(=O)Nc1ccc(-c2nc(N3CC4CCC(C3)O4)c3cnn(C4CCC5(CC4)OCCO5)c3n2)cc1`: the kinase still bound, per cent of control in [1] stood at 38%; in assay [2] it was 82%; in [3], 8.8%; in assay [4] it was 85%; in assay [5] it was 83%; in [6], 62%. Moreover, the kinase still bound, per cent of control stood at 100% in assay [7]; 100% in assay [8]; 100% in [9]; 69% in assay [10]; 9.6% in assay [11]; 11% in [12]. Further, the kinase still bound, per cent of control was determined as 11% in assay [13]; 64% in [14]; 89% in assay [15]; 100% in [16]; 69% in assay [17]; 5% in assay [18]. The kinase still bound, per cent of control in assay [19] came to 11%.
As to `C=CC(=O)Nc1cc(-n2c(=O)ccc3cnc4ccc(-c5cn[nH]c5)cc4c32)ccc1C`, the kinase still bound, per cent of control was determined as 58% in assay [1]; 5.8% in assay [2]; 23% in [3]; 66% in [4]; 100% in assay [5]; 53% in [6]. Moreover, the kinase still bound, per cent of control in assay [7] came to 64%; in assay [8], 2.4%; in [9], 96%; in assay [10], 79%; in assay [11], 13%; in assay [12], 18%. The kinase still bound, per cent of control in assay [13] was found to be 21%; in assay [14] it was 22%; in assay [15] it was 1.6%; in [16], 39%; in assay [17] it was 18%; in assay [18], 0.45%. Also, the kinase still bound, per cent of control in assay [19] turned out to be 21%.
On to `O=c1cc(N2CCOCC2)oc2c(-c3cccc4c3sc3ccccc34)cccc12`, for which the kinase still bound, per cent of control in assay [1] is 69%; in [2] it was 58%; in assay [3], 8.2%; in [4] it was 80%; in [5] it was 100%; in assay [6] it was 90%. Also, the kinase still bound, per cent of control in assay [7] is 100%; in [8] it was 93%; in assay [9], 100%; in assay [10], 100%; in [11], 11%; in [12] it was 19%. Besides, the kinase still bound, per cent of control in [13] was 16%; in [14], 100%; in assay [15] it was 100%; in [16], 100%; in assay [17], 86%; in assay [18], 2.2%. Further, in [19], the kinase still bound, per cent of control is 24%.
As for `COc1ccc(N(C(=O)Oc2c(C)cccc2C)c2ccnc(Nc3ccc(N4CCN(C)CC4)cc3)n2)c(OC)c1`, the kinase still bound, per cent of control stood at 0% in [1]; 3.4% in [2]; 45% in assay [3]; 0.25% in assay [4]; 100% in [5]; 0% in assay [6]. The kinase still bound, per cent of control in assay [7] amounted to 1.3%; in assay [8], 4.8%; in assay [9], 48%; in assay [10], 0.45%; in assay [11], 94%; in [12], 100%. Further, the kinase still bound, per cent of control in assay [13] turned out to be 81%; in assay [14] it was 0.1%; in [15], 0.65%; in assay [16] it was 0.3%; in assay [17] it was 3.4%; in [18], 100%. For the same compound, the kinase still bound, per cent of control in assay [19] came to 100%.
Regarding `C=CC(=O)Nc1ccc(C(=O)c2sc(Nc3ccc(N4CCN(C)CC4)cc3OC)nc2N)cc1`, the kinase still bound, per cent of control was determined as 77% in assay [1]; 67% in [2]; 93% in [3]; 69% in [4]; 83% in assay [5]; 81% in assay [6]. The kinase still bound, per cent of control was found to be 82% in assay [7]; 73% in assay [8]; 59% in assay [9]; 52% in assay [10]; 88% in assay [11]; 83% in assay [12]. In addition, the kinase still bound, per cent of control in assay [13] is 100%; in assay [14], 51%; in [15], 37%; in assay [16], 81%; in assay [17], 64%; in assay [18], 83%. Moreover, the kinase still bound, per cent of control in assay [19] was 93%.
In the case of `N#Cc1cc(-c2ccnc(Nc3ccc(-n4cnc(-c5cccnc5)n4)cc3)n2)cc(N2CCOCC2)c1`, the kinase still bound, per cent of control in assay [1] is 67%; in [2], 5.3%; in assay [3] it was 58%; in assay [4], 1%; in [5], 3.3%; in assay [6], 76%. The kinase still bound, per cent of control worked out at 69% in assay [7]; 28% in assay [8]; 4.2% in [9]; 94% in assay [10]; 100% in assay [11]; 100% in assay [12]. Also, the kinase still bound, per cent of control in [13] was 75%; in [14] it was 92%; in [15] it was 12%; in assay [16], 75%; in assay [17], 17%; in assay [18], 64%. The kinase still bound, per cent of control in assay [19] is 100%.
In the case of `NC(=O)Nc1cc(-c2cccc(F)c2)sc1C(=O)N[C@@H]1CCCNC1`, the kinase still bound, per cent of control in assay [1] was found to be 4.2%; in assay [3] it was 16%; in [5], 0.3%; in assay [6] it was 4.6%; in assay [7], 0%; in assay [8], 0%. Besides, the kinase still bound, per cent of control stood at 0% in assay [10]; 36% in assay [11]; 62% in assay [12]; 83% in assay [13]; 1.5% in assay [14]; 0% in assay [15]. Also, the kinase still bound, per cent of control in assay [16] stood at 0%; in [17], 0.1%; in assay [18], 100%; in assay [19], 100%.
